The source made the active and inactive calls. The rule behind the calls is not given here.
System: rodent carcinogenicity bioassays, tumor incidence
Experiment: CCRIS carcinogenicity studies
Procedure, shortened: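 NCI-built, expert-reviewed records of carcinogenicity and related test outcomes (mutagenicity, tumor promotion/inhibition) compiled from published and report sources, historical span 1985-2011, not updated.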

SMILES: O=c1c(-c2ccc(O)cc2)coc2cc(O)cc(O)c12
- carcinogen call (Species: Rat, Strain/Sex: Sprague-Dawley/Female (50/Group), Route: Oral, Dose: During pregnancy, ingested doses for dams were ~0, 0.5, 9, and 45 mg/kg bw/day. During lactation, ingested doses for dam): inactive; negative
- carcinogen call (Species: Rat, Strain/Sex: Sprague-Dawley/Female (50/Group), Route: Oral, Dose: During pregnancy, ingested doses for dams were ~0, 0.5, 9, and 45 mg/kg bw/day. During lactation, ingested doses for dam, Tumor Site: Type of Lesion: Mammary gland: adenoma and adenocarcinoma combined (13.2%, 16.3%, 22.0%, 26.0%)): inactive; negative. positive trend but results do not reach statistical significance (ntp
- carcinogen call (Species: Rat, Strain/Sex: Sprague-Dawley/Female (50/Group), Route: Oral, Dose: During pregnancy, ingested doses for dams were ~0, 0.5, 9, and 45 mg/kg bw/day. During lactation, ingested doses for dam, Tumor Site: Type of Lesion: Mammary gland: adenoma and adenocarcinoma combined (16.7%, 8.0%, 16.0%, 32.7%) Pituitary gland: neoplasms (70.4%, 80.0%): inactive; positive but at 2 lower doses, there was a negative trend for the mammary tumors
- carcinogen call (Species: Rat, Strain/Sex: Sprague-Dawley/Female (50/Group), Route: Oral, Dose: During pregnancy, ingested doses for dams were ~0, 0.5, 9, and 45 mg/kg bw/day. During lactation, ingested doses for dam, Tumor Site: Type of Lesion: Pituitary gland: adenoma and carcinoma combined (Overall rate 70.4%, 65.3%, 80.0%, 88.0%)): inactive; negative (ntp describes as equivocal)
- carcinogen call (Species: Rat, Strain/Sex: Sprague-Dawley/Male (50/Group), Route: Oral, Dose: During pregnancy, ingested doses for dams were ~0, 0.5, 9, and 45 mg/kg bw/day. During lactation, ingested doses for dam): inactive; negative

SMILES: Nc1ccc(N=Nc2ccc(-c3ccc(N=Nc4c(S(=O)(=O)O)cc5c(c4N)C(=O)/C(=N/Nc4ccccc4)C(S(=O)(=O)O)=C5)cc3)cc2)c(N)c1
- carcinogen call (Species: MOUSE, Strain/Sex: ICR/MALE,FEMALE, Route: ORAL, Dose: 0, 0.3% IN DRINKING WATER FOR LIFE (STUDY DURATION: 50-60 WK), Tumor Site: Type of Lesion: LIVER: HEPATOCELLULAR CARCINOMA, MAMMARY GLAND: ADENOCARCINOMA OR SQUAMOUS CELL CARCINOMA): active; positive
- carcinogen call (Species: RAT, Strain/Sex: F344/FEMALE, Route: ORAL, Dose: 0, 190, 375, 750, 1500, 3000 PPM IN DIET FOR 91 D (STUDY DURATION:93 D), Dose: 0, 190, 375, 750, 1500, 3000 PPM IN DIET FOR 91 D (STUDY DURATION:93 D), Tumor Site: Type of Lesion: LIVER: NEOPLASTIC NODULE, FOCI OF CELLULAR ALTERATION OR BASOPHILIC FOCI): active; positive
- carcinogen call (Species: RAT, Strain/Sex: F344/MALE, Route: ORAL, Dose: 0, 190, 375, 750, 1500, 3000 PPM IN DIET FOR 91 D (STUDY DURATION: 93 D), Dose: 0, 190, 375, 750, 1500, 3000 PPM IN DIET FOR 91 D (STUDY DURATION: 93 D), Tumor Site: Type of Lesion: LIVER: HEPATOCELLULAR CARCINOMA OR NEOPLASTIC NODULE, FOCI OF CELLULAR ALTERATION OR BASOPHILIC FOCI): active; positive

SMILES: Clc1ccc(C(c2ccccc2Cl)C(Cl)(Cl)Cl)cc1 (stereo not drawn) (tested in a mixture with another compound)
- carcinogen call (Species: MOUSE, Strain/Sex: BALB/MALE,FEMALE, Route: DIET, Dose: 0, 2, 20, 250 PPM, Dose: 0, 2, 20, 250 PPM, Tumor Site: Type of Lesion: LIVER: HEPATOCELLULAR TUMOR): active; positive
- carcinogen call (Species: MOUSE, Strain/Sex: CF-1/MALE,FEMALE, Route: DIET, Dose: 0, 250 PPM FOR 30 WK, Tumor Site: Type of Lesion: LIVER: HEPATOMA): active; positive
- carcinogen call (Species: MOUSE, Strain/Sex: CF-1, Route: DIET, Dose: 0, 2, 10, 50, 250 PPM, Dose: 0, 2, 10, 50, 250 PPM, Tumor Site: Type of Lesion: LIVER: HEPATOCELLULAR TUMOR): active; positive

SMILES: [P]#[In]
- carcinogen call (Species: MOUSE, Strain/Sex: B6C3F1/FEMALE, Route: INHALATION, Dose: 0, 0.03, 0.1, 0.3 MG/M3 AEROSOL FOR 6 HR/D 5 D/WK FOR 105 WK (CONTROL AND LOW DOSE GROUPS) OR 21 WK (MID AND HIGH DOSE G, Dose: 0, 0.03, 0.1, 0.3 MG/M3 AEROSOL FOR 6 HR/D 5 D/WK FOR 105 WK (CONTROL AND LOW DOSE GROUPS) OR 21 WK (MID AND HIGH DOSE G, Tumor Site: Type of Lesion: LIVER: HEPATOCELLULAR ADENOMA, HEPATOCELLULAR CARCINOMA, HEPATOCELLULAR ADENOMA OR CARCINOMA, LUNG: ALVEOLAR/BRONCHIOLAR): active; positive
- carcinogen call (Species: MOUSE, Strain/Sex: B6C3F1/MALE, Route: INHALATION, Dose: 0, 0.03, 0.1, 0.3 MG/M3 AEROSOL FOR 6 HR/D 5 D/WK FOR 105 WK (CONTROL AND LOW DOSE GROUPS) OR 21 WK (MID AND HIGH DOSE G, Dose: 0, 0.03, 0.1, 0.3 MG/M3 AEROSOL FOR 6 HR/D 5 D/WK FOR 105 WK (CONTROL AND LOW DOSE GROUPS) OR 21 WK (MID AND HIGH DOSE G, Tumor Site: Type of Lesion: LIVER: HEPATOCELLULAR ADENOMA, HEPATOCELLULAR CARCINOMA, HEPATOCELLULAR ADENOMA OR CARCINOMA, LUNG: ALVEOLAR/BRONCHIOLAR): active; positive
- carcinogen call (Species: RAT, Strain/Sex: F344/FEMALE, Route: INHALATION, Dose: 0, 0.03, 0.1, 0.3 MG/M3 AEROSOL FOR 6 HR/D 5 D/WK FOR 105 WK (CONTROL AND LOW DOSE GROUPS) OR 22 WK (MID AND HIGH DOSE G, Dose: 0, 0.03, 0.1, 0.3 MG/M3 AEROSOL FOR 6 HR/D 5 D/WK FOR 105 WK (CONTROL AND LOW DOSE GROUPS) OR 22 WK (MID AND HIGH DOSE G, Tumor Site: Type of Lesion: ADRENAL MEDULLA: BENIGN PHEOCHROMOCYTOMA, LUNG: ALVEOLAR/BRONCHIOLAR ADENOMA, ALVEOLAR/BRONCHIOLAR CARCINOMA, ALVEOLAR/B): active; positive
- carcinogen call (Species: RAT, Strain/Sex: F344/MALE, Route: INHALATION, Dose: 0, 0.03, 0.1, 0.3 MG/M3 AEROSOL FOR 6 HR/D 5 D/WK FOR 105 WK (CONTROL AND LOW DOSE GROUPS) OR 22 WK (MID AND HIGH DOSE G, Dose: 0, 0.03, 0.1, 0.3 MG/M3 AEROSOL FOR 6 HR/D 5 D/WK FOR 105 WK (CONTROL AND LOW DOSE GROUPS) OR 22 WK (MID AND HIGH DOSE G, Tumor Site: Type of Lesion: ADRENAL MEDULLA: BENIGN PHEOCHROMOCYTOMA, BENIGN OR MALIGNANT PHEOCHROMOCYTOMA, LUNG: ALVEOLAR/BRONCHIOLAR ADENOMA, ALVE): active; positive

SMILES: N#Cc1nn(-c2c(Cl)cc(C(F)(F)F)cc2Cl)c(N)c1S(=O)C(F)(F)F (stereo not drawn)
- carcinogen call (Species: Mouse, Strain/Sex: CD-1/Female (32/Group), Route: Oral, Dose: 0, 0.1, 0.5, 10, 30 ppm of 95.4% fipronil in diet for 78 wks, study duration 78 wks, Dose: 0, 0.1, 0.5, 10, 30 ppm of 95.4% fipronil in diet for 78 wks, study duration 78 wks): inactive; negative
- carcinogen call (Species: Mouse, Strain/Sex: CD-1/Male (32/Group), Route: Oral, Dose: 0, 0.1, 0.5, 10, 30 ppm of 95.4% fipronil in diet for 78 wks, study duration 78 wks, Dose: 0, 0.1, 0.5, 10, 30 ppm of 95.4% fipronil in diet for 78 wks, study duration 78 wks, Tumor Site: Type of Lesion: Liver: malignant hepatocellular tumors at highest dose): active; positive
- carcinogen call (Species: Rat, Strain/Sex: CD/Female (50/Group), Route: Oral, Dose: 0, 0.5, 1.5, 30, 300 ppm of 95.4% fipronil in diet for 89-91 wks, study duration 104 wks, Dose: 0, 0.5, 1.5, 30, 300 ppm of 95.4% fipronil in diet for 89-91 wks, study duration 104 wks, Tumor Site: Type of Lesion: Thyroid: follicular cell adenoma and carcinoma at highest dose): active; positive
- carcinogen call (Species: Rat, Strain/Sex: CD/Male (50/Group), Route: Oral, Dose: 0, 0.5, 1.5, 30, 300 ppm of 95.4% fipronil in diet for 89-91 wks, study duration 104 wks, Dose: 0, 0.5, 1.5, 30, 300 ppm of 95.4% fipronil in diet for 89-91 wks, study duration 104 wks, Tumor Site: Type of Lesion: Thyroid: follicular cell adenoma and carcinoma at highest dose): active; positive

SMILES: CCCN(CCC)C(=O)SCC
- carcinogen call (Species: Mouse, Strain/Sex: Crl:CD-1/Female (60/Group), Route: Oral, Dose: 0, 200, 600, 1800 ppm in diet for 73 wks, study duration 73 wks, Dose: 0, 200, 600, 1800 ppm in diet for 73 wks, study duration 73 wks): inactive; negative
- carcinogen call (Species: Mouse, Strain/Sex: Crl:CD-1/Male (60/Group), Route: Oral, Dose: 0, 200, 600, 1800 ppm in diet for 73 wks, study duration 73 wks, Dose: 0, 200, 600, 1800 ppm in diet for 73 wks, study duration 73 wks): inactive; negative
- carcinogen call (Species: Rat, Strain/Sex: Crl:CD (SD) BR/Female (90/Group), Route: Oral, Dose: 0, 9, 18, 36, 72 mg/kg/day in diet for 2 yr, study duration 2 yr, Dose: 0, 9, 18, 36, 72 mg/kg/day in diet for 2 yr, study duration 2 yr): inactive; negative
- carcinogen call (Species: Rat, Strain/Sex: Crl:CD (SD) BR/Male (90/Group), Route: Oral, Dose: 0, 9, 18, 36, 72 mg/kg/day in diet for 2 yr, study duration 2 yr, Dose: 0, 9, 18, 36, 72 mg/kg/day in diet for 2 yr, study duration 2 yr): inactive; negative
